Measurements reported in PubChem BioAssay (NCI).
Several values for one entry are separate records, joined by “and”; a condition that tells them apart may be missing. Equal values may be shown once.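 Five concentrations, 48 hours, 96-well plates. Here, GI50 denotes the concentration required for 50% inhibition of growth. Definition used: TGI = concentration required for complete inhibition of growth.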

What was measured:
Assay in all cases: inhibition of tumour cell growth, NCI panel, 48 h
A498 renal = system: A498 renal
COLO 205 colon = system: COLO 205 colon
HL-60(TB) leukemia = system: HL-60(TB) leukemia
NCI-H226 lung = system: NCI-H226 lung
NCI-H522 lung = system: NCI-H522 lung
SF-539 CNS = system: SF-539 CNS
SK-OV-3 ovarian = system: SK-OV-3 ovarian
SNB-19 CNS = system: SNB-19 CNS
UACC-62 melanoma = system: UACC-62 melanoma
HOP-62 NSCLC = system: HOP-62 NSCLC
K-562 leukemia = system: K-562 leukemia
MOLT-4 leukemia = system: MOLT-4 leukemia
NCI/ADR-RES ovarian = system: NCI/ADR-RES ovarian

Compound	TGI (A498 renal) [µM]	TGI (COLO 205 colon) [µM]	TGI (HL-60(TB) leukemia) [µM]	TGI (NCI-H226 lung) [µM]	TGI (NCI-H522 lung) [µM]	TGI (SF-539 CNS) [µM]	TGI (SK-OV-3 ovarian)	TGI (SNB-19 CNS)	TGI (UACC-62 melanoma) [µM]	TGI (HOP-62 NSCLC)	TGI (K-562 leukemia) [µM]	TGI (MOLT-4 leukemia) [µM]	TGI (NCI/ADR-RES ovarian) [µM]	GI50 (A498 renal) [µM]	GI50 (COLO 205 colon) [µM]	GI50 (MOLT-4 leukemia) [µM]	GI50 (SNB-19 CNS) [µM]	GI50 (SF-539 CNS) [µM]	GI50 (UACC-62 melanoma) [µM]
Nc1nc2c(ncn2CCOC(c2ccccc2)P(=O)(O)O)c(=O)[nH]1 (stereo unspecified)	> 100	> 100	> 100	> 100	> 100	> 100	> 100 µM	> 100 µM	> 100										
CCCCCCCCCCCCCCCCCCNc1ccn(C2OC(COP(=O)(O)O)C(O)C2O)c(=O)n1 (stereo unspecified)	> 100	> 100		> 100	> 100	> 100	> 100 µM	> 100 µM	> 100	> 100 µM	> 100	> 100	> 100						
Cn1c(-c2csc(-c3ccc(Cl)cc3)n2)n[nH]c1=S		> 100		57.3	41	46.7	32 µM	44.4 µM	46.6	30.2 µM	> 100	> 100	> 100						
c1ccc2c(c1)CCc1c-2n(CCN2CCCCC2)c2ccccc12		26.2		25.1	27.1	26.6	49.7 µM	94.5 µM	29.1	30.1 µM	30.9	44.8	33.1						
Cc1cc2c(c3oc(C(O)(CO)C4CO4)cc(=O)c13)C(=O)c1c(O)cccc1C2=O (stereo unspecified)	0.00403	0.00115	0.00397	0.00209	0.00323	0.000212	0.00671 µM and 0.00173 µM	0.00442 µM and 0.00494 µM	0.00293	0.00989 µM and 0.00353 µM		> 37.5		0.00375	0.0001	> 37.5	0.000231		
Cc1cc(Cc2cc(C)c(NC(=O)C(=O)C3C(=O)NC(=S)NC3=O)c(C(C)C)c2)cc(C(C)C)c1NC(=O)C(=O)C1C(=O)NC(=S)NC1=O	> 100	> 100	> 100	> 100	> 100		> 100 µM	> 100 µM	> 100	> 100 µM	> 100	> 100							
CN1N=C2c3ccccc3CC[C@H]2C1c1ccccc1 (stereo partly specified)	> 100	> 100	> 100	> 100	94.3	> 100	> 100 µM	> 100 µM	> 100	> 100 µM	> 100	> 100							
CCSc1nc2sc(C)c(C)c2c(=O)n1-c1ccc(C(=O)O)cc1	> 100	> 100	> 100	86.2	76.3	55	> 100 µM	> 100 µM	> 100	> 100 µM	> 100	> 100							
N#CCCC(CC#N)N1CCN(CCO)CC1 (stereo unspecified)	> 100	> 100	> 100	> 100		> 100	> 100 µM	> 100 µM	> 100	> 100 µM	> 100	> 100	> 100						
Cn1c(C(C#N)c2cc(Cl)ncn2)nc2ccccc21 (stereo unspecified)	> 100	> 100		> 100	> 100	> 100	> 100 µM	> 100 µM		> 100 µM		> 100	> 100						
O=c1c2cc(Br)ccc2oc2nc3n(c(=O)c12)CCCS3	> 100	> 100		> 100	> 100	> 100		> 100 µM	> 100	> 100 µM	> 100	> 100	> 100						
CC1=C(C2=C(C)C(=O)C(=O)c3cc(C)ccc32)c2ccc(C)cc2C(=O)C1=O	3.25	0.525	> 100	6.48	0.631	0.346	3.07 µM	0.31 µM	0.381	2.59 µM									
CC(SC(=S)N1CCCCC1)C(=O)Nc1nnc(-c2ccc(Cl)cc2)o1 (stereo unspecified)	88.6	> 100	23.1	> 100		> 100	> 100 µM	> 100 µM	75.1	> 100 µM	> 100		> 100						
CCC(=O)OCc1ccc2oc(=O)c(C(=O)Oc3cncc(Cl)c3)cc2c1		> 100		> 100	> 100	> 100	> 100 µM	> 100 µM	> 100	> 100 µM	77.9	> 100	> 100						
O=c1ccc2ccccc2o1	> 100	> 100	> 100	> 100	> 100	> 100	> 100 µM	> 100 µM	> 100	> 100 µM	> 100	> 100							
COC(=O)C(NC(=O)CNC(=O)CSc1nnc(COc2ccc(Cl)cc2)n1-c1ccccc1)C(C)C (stereo unspecified)	56.7	34.1		38.3	19.3	31.9		50.1 µM	31.8	92 µM	> 100	> 100	> 100						
C=C1C(=O)OC2/C=C(\C)C(O)CC(O)C(C)(O)CC(OC(=O)/C(C)=C/C)C12 (stereo unspecified)	> 84.3	> 100	> 82.8	> 100	> 100	> 100	> 100 µM	> 100 µM	> 100	> 100 µM	> 100	> 100							
Oc1[nH]c2ccccc2c1N=NC1=NCCCCN1	> 100	> 100		> 100	> 100	> 100	> 100 µM	> 100 µM	> 100	> 100 µM	> 100	> 100	> 100						
CN1CCN(CC(=O)Nc2ccc3ncnc(Nc4ccc(Oc5cccc(C(F)(F)F)c5)c(Cl)c4)c3c2)CC1	2.66					2.99			3.4					1.32				1.6	1.83
